Patent publication US7528138B2, “Pyrazolo[1,5-a]pyrimidines useful as inhibitors of protein kinases” (Vertex Pharmaceuticals Incorporated, priority 2004, dated 2009)
pKi: −log10 of the molar value.

Assays:
c-Met = c-Met (Homo sapiens, UniProt P08581); test: c-Met Inhibition Assay, coupled enzyme system; assay type: biochemical; settings: enzyme inhibition data (Ki), Table 11
How it was run: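 Pyruvate kinase/lactate dehydrogenase-coupled NADH assay in HEPES pH 7.5 with 80 nM c-Met, 200 μM ATP and 10 μM polyGluTyr at 30° C. Compound (0.006–12.5 μM final, 12-point) preincubated 10 min before ATP start; rates over 10 min gave Ki.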

JAK3 = target: T1, JAK3 (Homo sapiens, UniProt P52333); test: JAK3 Inhibition Assay, 33P incorporation; assay type: biochemical; settings: enzyme inhibition data (Ki), Table 11
T1 sequence (P52333 1-1124): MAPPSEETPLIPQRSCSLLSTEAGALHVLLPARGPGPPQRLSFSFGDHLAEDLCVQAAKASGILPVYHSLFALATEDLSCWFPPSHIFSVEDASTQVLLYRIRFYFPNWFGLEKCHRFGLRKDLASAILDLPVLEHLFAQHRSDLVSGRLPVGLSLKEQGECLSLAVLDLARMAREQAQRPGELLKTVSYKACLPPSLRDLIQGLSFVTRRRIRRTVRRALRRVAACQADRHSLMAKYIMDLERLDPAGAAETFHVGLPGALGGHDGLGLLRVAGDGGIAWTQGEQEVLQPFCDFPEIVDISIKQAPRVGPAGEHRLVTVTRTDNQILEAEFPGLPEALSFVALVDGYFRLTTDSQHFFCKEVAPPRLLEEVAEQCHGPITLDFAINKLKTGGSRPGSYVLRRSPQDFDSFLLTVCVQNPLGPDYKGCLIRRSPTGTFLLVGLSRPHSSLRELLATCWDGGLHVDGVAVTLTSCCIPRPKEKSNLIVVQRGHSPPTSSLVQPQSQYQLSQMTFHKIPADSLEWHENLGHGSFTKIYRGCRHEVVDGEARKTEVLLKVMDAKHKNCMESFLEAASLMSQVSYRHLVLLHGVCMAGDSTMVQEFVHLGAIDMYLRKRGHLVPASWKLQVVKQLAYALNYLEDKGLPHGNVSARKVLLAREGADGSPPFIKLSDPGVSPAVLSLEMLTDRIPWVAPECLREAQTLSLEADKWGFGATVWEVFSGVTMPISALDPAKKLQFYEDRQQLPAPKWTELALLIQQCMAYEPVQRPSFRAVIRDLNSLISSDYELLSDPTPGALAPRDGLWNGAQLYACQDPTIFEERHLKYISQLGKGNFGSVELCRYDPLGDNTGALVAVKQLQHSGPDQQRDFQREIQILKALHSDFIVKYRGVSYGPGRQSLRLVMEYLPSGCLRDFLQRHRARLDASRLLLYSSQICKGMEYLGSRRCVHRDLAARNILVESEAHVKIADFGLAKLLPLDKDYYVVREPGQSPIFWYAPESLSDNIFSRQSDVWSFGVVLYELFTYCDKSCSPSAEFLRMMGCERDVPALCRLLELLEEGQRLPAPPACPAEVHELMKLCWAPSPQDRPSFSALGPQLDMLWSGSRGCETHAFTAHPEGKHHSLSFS
How it was run: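 33P incorporation into 1 μM poly(Glu)4Tyr was counted after TCA stop and glass fiber filtration. The 20 min reaction ran at 25 °C with 1 nM JAK3 and 5 μM ATP (200 uCi/μmole). Buffer was 100 mM HEPES pH 7.4, 10 mM MgCl2, 25 mM NaCl, 1 mM DTT, 0.01% BSA.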

Chain of c-Met (P08581 25-1390): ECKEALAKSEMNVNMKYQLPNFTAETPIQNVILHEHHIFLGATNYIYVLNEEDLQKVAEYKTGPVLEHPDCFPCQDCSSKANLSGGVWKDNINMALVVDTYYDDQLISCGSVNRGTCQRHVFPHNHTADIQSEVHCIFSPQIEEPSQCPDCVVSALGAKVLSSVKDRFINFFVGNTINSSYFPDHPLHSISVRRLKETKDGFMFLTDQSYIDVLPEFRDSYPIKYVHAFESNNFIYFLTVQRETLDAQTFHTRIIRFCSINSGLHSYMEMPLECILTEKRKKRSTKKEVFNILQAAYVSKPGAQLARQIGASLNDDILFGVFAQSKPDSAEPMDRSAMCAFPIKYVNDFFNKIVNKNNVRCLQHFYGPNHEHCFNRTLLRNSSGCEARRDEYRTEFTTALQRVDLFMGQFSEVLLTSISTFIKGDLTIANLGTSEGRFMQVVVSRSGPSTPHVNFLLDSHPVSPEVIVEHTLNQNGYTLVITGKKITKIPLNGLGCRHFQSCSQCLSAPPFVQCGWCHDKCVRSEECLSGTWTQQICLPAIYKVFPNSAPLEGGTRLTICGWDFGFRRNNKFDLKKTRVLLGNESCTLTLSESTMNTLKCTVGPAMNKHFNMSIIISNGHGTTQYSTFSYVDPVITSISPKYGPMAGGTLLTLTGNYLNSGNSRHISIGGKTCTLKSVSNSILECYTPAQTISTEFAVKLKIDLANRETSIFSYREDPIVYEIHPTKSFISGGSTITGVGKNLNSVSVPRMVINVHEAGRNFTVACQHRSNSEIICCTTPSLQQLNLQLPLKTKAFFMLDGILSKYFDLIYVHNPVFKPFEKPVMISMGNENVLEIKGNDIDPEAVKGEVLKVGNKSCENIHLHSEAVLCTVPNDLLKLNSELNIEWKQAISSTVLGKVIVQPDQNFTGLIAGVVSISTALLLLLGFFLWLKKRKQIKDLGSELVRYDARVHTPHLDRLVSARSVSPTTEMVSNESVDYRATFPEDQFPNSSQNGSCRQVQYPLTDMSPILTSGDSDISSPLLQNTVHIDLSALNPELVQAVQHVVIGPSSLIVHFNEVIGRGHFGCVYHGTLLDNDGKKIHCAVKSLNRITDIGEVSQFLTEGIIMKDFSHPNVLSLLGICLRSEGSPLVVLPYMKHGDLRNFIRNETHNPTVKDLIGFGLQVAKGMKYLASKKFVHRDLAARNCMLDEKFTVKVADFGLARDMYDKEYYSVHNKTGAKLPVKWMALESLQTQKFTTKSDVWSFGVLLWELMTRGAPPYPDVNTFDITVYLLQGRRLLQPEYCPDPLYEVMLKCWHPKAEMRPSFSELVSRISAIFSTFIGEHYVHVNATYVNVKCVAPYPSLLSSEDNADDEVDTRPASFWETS

| pKi (c-Met) | pKi (JAK3) | Compound |
| --- | --- | --- |
| > 6.30 | 5.30 to 6.30 | CN(C)Cc1ccc(-c2cnc3c(-c4ccccn4)c(N)nn3c2)cc1 [Compound V-214] |
| > 6.30 | < 5.30 | CN(C)Cc1cccc(-c2cnc3c(-c4ccccn4)c(N)nn3c2)c1 [Compound V-215] |
| 5.30 to 6.30 | < 5.30 | COc1ccc(-c2cn3nc(N)c(-c4ccccn4)c3nc2C)cc1 [Compound V-216] |
| > 6.30 | 5.30 to 6.30 | Nc1nn2cc(-c3ccc(CN4CCNCC4)cc3)cnc2c1-c1ccccn1 [Compound V-217] |
| 5.30 to 6.30 | < 5.30 | COc1ccc(-c2cnc3c(-c4ccncc4)c(N)nn3c2)cc1 [Compound V-219] |
| > 6.30 | 5.30 to 6.30 | Nc1nn2cc(-c3cccc(CO)c3)cnc2c1-c1ccccn1 [Compound V-221] |
| > 6.30 | 5.30 to 6.30 | Nc1nn2cc(-c3cccc(N4CCNCC4)c3)cnc2c1-c1ccccn1 [Compound V-222] |
| > 6.30 | 5.30 to 6.30 | Nc1nn2cc(-c3cccc(CN4CCNCC4)c3)cnc2c1-c1ccccn1 [Compound V-223] |
| > 6.30 | < 5.30 | Nc1nn2cc(-c3cccc(CN4CCOCC4)c3)cnc2c1-c1ccccn1 [Compound V-225] |
| > 6.30 | < 5.30 | NC1NN2C=C(c3cccc(CN4CC[C@@H](N)C4)c3)C=NC2=C1c1ccccn1 (some centres unmarked) [Compound V-226] |
| > 6.30 | < 5.30 | NC1NN2C=C(c3cccc(CN4CC[C@H](N)C4)c3)C=NC2=C1c1ccccn1 (some centres unmarked) [Compound V-227] |
| > 6.30 | < 5.30 | NC1NN2C=C(c3cccc(CN4CCCNCC4)c3)C=NC2=C1c1ccccn1 (centres unmarked) [Compound V-228] |
| > 6.30 | < 5.30 | NC1CCN(Cc2cccc(C3=CN4NC(N)C(c5ccccn5)=C4N=C3)c2)CC1 (centres unmarked) [Compound V-229] |
| > 6.30 | 5.30 to 6.30 | CNCCCN(C)Cc1ccc(-c2cnc3c(-c4ccccn4)c(N)nn3c2)cc1 [Compound V-230] |
| > 6.30 | 5.30 to 6.30 | Nc1nn2cc(-c3ccc(CN4CC[C@@H](N)C4)cc3)cnc2c1-c1ccccn1 [Compound V-231] |
| > 6.30 | < 5.30 | Nc1nn2cc(-c3ccc(CNC4CCNCC4)cc3)cnc2c1-c1ccccn1 [Compound V-232] |
| > 6.30 | 5.30 to 6.30 | Nc1nn2cc(-c3ccc(CN4CC[C@H](N)C4)cc3)cnc2c1-c1ccccn1 [Compound V-233] |
| > 6.30 | 5.30 to 6.30 | Nc1nn2cc(-c3ccc(CN4CCC(N)CC4)cc3)cnc2c1-c1ccccn1 [Compound V-234] |
| > 6.30 | 5.30 to 6.30 | CNCc1ccc(-c2cnc3c(-c4ccccn4)c(N)nn3c2)cc1 [Compound V-236] |
| > 6.30 | 5.30 to 6.30 | CC(C)(O)C#Cc1cnc2c(-c3ccccn3)c(N)nn2c1 [Compound V-237] |
| > 6.30 | 5.30 to 6.30 | Nc1nn2cc(C#CCO)cnc2c1-c1ccccn1 [Compound V-238] |
| > 6.30 | > 6.30 | Nc1nn2cc(-c3ccncc3)cnc2c1-c1cc(Nc2ccccc2)ncn1 [Compound V-241] |
| > 6.30 | > 6.30 | COc1ccccc1Nc1cc(-c2c(N)nn3cc(-c4ccncc4)cnc23)ncn1 [Compound V-242] |
| > 6.30 | > 6.30 | CC(C)CN(C)c1cc(-c2c(N)nn3cc(-c4ccncc4)cnc23)ncn1 [Compound V-243] |
| > 6.30 | > 6.30 | CCCN(CC)c1cc(-c2c(N)nn3cc(-c4ccncc4)cnc23)ncn1 [Compound V-244] |
